Experiments:
[1] = system: multidrug resistance-associated protein (Mrp3); assay: Mrp3 expression in rat liver; assay type: in vivo; conditions: treated rats; data not shown
Protocol: (§1) All animal experiments were conducted in accordance with the Guiding Principles in the Use of Animals in Toxicology (http://www.toxicology.org/ai/air/air6.asp) and were approved by Abbott's Institutional Animal Care and Use Committee (IACUC). Male Sprague-Dawley rats [Crl:CD®(SD)IGS BR], weighing ~250 g at study initiation were obtained from Charles River Laboratories, Inc. (Wilmington, MA). Rats were housed singly in ventilated, stainless steel, wire-bottom hanging cages and fed non-certified Rodent Chow (Harlan Labs, Madison, WI), and water ad libitum and acclimated for at least 5 days after arrival. […] Serum clinical chemistry parameters were quantified using an Aeroset Clinical Chemistry Analyzer (Abbott Laboratories, Abbott Park, IL) and included alanine amino transferase (ALT), aspartate amino transferase (AST), gamma glutamyltransferase (GGT), and alkaline phosphatase (ALP) activities.
(§2) Frozen liver or jejunum were immediately added to 4 ml of TRIzol reagent (Invitrogen Life Technologies) and homogenized using a Polytron 300D homogenizer (Brinkman Instruments, Westbury, NY). […] Nucleic acid concentration was determined by OD 260 nm (Smart-Spec, Bio-Rad Laboratories, Hercules, CA), and RNA integrity was evaluated using an Agilent 2100 bioanalyzer (Agilent Technologies, Foster City, CA). […]

rat Cyp 2C13 = molecular target: T1, rat Cyp 2C13 (Rattus norvegicus, UniProt P20814); assay: Recombinant rat Cyp phenotype profiling, 2C13; assay type: in vitro ADME; conditions: 60 min
T1 construct: purchased BD Gentest; host or cells: baculovirus infected insect cells
Protocol: Identification of the drug metabolizing enzymes (DMEs) of A-998679 was studied in cDNA expressed recombinant enzymes prepared from baculovirus infected insect cells over-expressing rat Cyp isoforms (BD Gentest, Woburn, MA) as listed in Table 2. Incubations were conducted in duplicate using Supersomes. The incubation mixture contained 100 pmol/ml of enzymes, except for Cyp1a1 (200 pmol/ml), 0.1 or 0.21 μM of [^3H]A-998679 in 100 mM phosphate buffer (pH 7.4). Reactions were initiated with the addition of NADPH at a final concentration of 1 mM and incubated at 37°C for 60 min. At the end of the incubation period, the incubations were terminated by the addition of acetonitrile/ethanol (50/50, v/v) solution. Insect control samples lacking expressed enzyme were used as negative control. The degree of metabolism of A-998679 was assessed by percent of parent remaining using the radio-HPLC method described below.
Radiolabeled components from the above assays were profiled following separation by HPLC with on line radioflow detector. The system consisted of an Agilent 1100 Series quaternary pump and autosampler connected to a Packard 500TR flow scintillation detector. The data were processed using the Radiomatic™ Flo-one® software v3.65. The scintillant (Perkin Elmer FLO-SCINT™ III) flow was maintained at 3 ml/min. […]

AhR gene battery = assay: Rat liver mRNA profiling of the AhR gene battery; assay type: in vivo; conditions: 5 days
Protocol: as §1, §2

T1 sequence (P20814 whole entry): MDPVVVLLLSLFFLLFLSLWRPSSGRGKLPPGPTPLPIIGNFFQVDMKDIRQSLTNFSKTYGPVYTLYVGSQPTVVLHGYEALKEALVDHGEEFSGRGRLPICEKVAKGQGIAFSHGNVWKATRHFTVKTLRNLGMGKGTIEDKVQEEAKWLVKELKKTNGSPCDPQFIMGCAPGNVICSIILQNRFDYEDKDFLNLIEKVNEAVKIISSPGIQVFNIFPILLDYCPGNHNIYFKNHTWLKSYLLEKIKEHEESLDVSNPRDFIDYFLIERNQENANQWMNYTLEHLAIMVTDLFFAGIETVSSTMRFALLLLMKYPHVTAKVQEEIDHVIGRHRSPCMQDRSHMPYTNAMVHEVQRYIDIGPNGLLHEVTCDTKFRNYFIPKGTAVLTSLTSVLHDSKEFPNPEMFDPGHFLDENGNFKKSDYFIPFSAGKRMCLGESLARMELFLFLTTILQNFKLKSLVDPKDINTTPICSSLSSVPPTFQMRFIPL

For N#Cc1cccc(-c2noc(-c3cccnc3)n2)c1 [A-998679, 3-(5-pyridin-3-yl-1,2,4-oxadiazol-3-yl) benzonitrile], the “expression of Mrp3 in liver” value [1] was “increased expression”, the “% parent remaining” value (rat Cyp 2C13; recombinant rat Cyp 2C13, 0.10 μM) was 100% and the “% parent remaining” value (rat Cyp 2C13; recombinant rat Cyp 2C13, 0.21 μM) was 100%. The “expression of members of the AhR gene battery (Gst isoforms, Nqo1, Aldh, AhR) in rat liver” value (AhR gene battery) was “upregulated”.

From article PMC3481155, “AhR activation underlies the CYP1A autoinduction by A-998679 in rats” (Frontiers in Genetics, 2012)
